From paper PMC9250534, “Synthesis and direct assay of large macrocycle diversities by combinatorial late-stage modification at picomole scale” (Nature Communications, 2022)
Numbered stars: 1 amine (or outer) side, 2 acyl side, 3 side chain; on linkers, the order of the positions; unused ones are H or OH. Bridge positions count the residues as written; N and C are the ends. Square brackets hold non-standard residues; d marks the D form. Peptide text beside a SMILES is read from it. * marks the point of attachment. ξ: configuration not given here. ξPro(4-NHCO(5-Cl-2-thienyl)) = O=C(NC1CNC(C(=O)O)C1)c1ccc(Cl)s1; 2Thenoyl(5-Cl) = O=C(c1ccc(Cl)s1)*; Cysteamide = C(CS[*:3])N[*:1]; Api = NC1(C(=O)O)CCNCC1; Orn = NCCC[CH](N)C(=O)O; Mpa = O=C(O)CCS

Target: T1, thrombin (Homo sapiens, UniProt P00734)
T1 construct: consists of two polypeptide chains of 36 (light chain) and 259 amino acid
Assay: Thrombin inhibition screen of crude macrocycle reactions (residual thrombin activity, fluorogenic substrate Z-Gly-Gly-Arg-AMC)
Type: biochemical
Details: 10 µM macrocycle concentration, macrocycles containing acid 14, crude reaction; for % thrombin activity, Repeat screen: replicate reaction and screen
Procedure, shortened: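 Residual activity was measured as the AMC release rate after adding 50 μM Z-Gly-Gly-Arg-AMC. This followed a 10-min room-temperature preincubation of 2 nM thrombin with 10 μM single macrocycles in pH 7.4 Tris buffer (0.6% DMSO). Percent inhibition was taken against the mean slope of DMSO controls.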

Compound | % thrombin activity, Original screen [%] | % thrombin activity, Repeat screen [%] | % thrombin activity, Original screen (listed as X B2 D3 s) [%] | % thrombin activity, Repeat screen (listed as X B2 D3 s) [%] | % thrombin activity, Original screen (listed as X B4 w D1) [%] | % thrombin activity, Repeat screen (listed as X B4 w D1) [%]
CC(C)CC1NC(=O)C2CCCN2C(=O)CCSSCCNC(=O)C2CC(NC(=O)c3ccc(Cl)s3)CN2C1=O (stereo not shown) [X B1 L D5] ([Mpa]PL[ξPro(4-NHCO(5-Cl-2-thienyl))]-Cysteamide; disulfide 1-C; configuration not given here) | 94.2 | 99.9 | – | – | – | –
NC(=O)CCC1NC(=O)C2CCCN2C(=O)CCSSCCNC(=O)C(CCCNC(=O)c2ccc(Cl)s2)NC1=O (stereo not shown) [X B1 Q D2] ([Mpa]PQ[Orn](2Thenoyl(5-Cl))-Cysteamide; disulfide 1-C; configuration not given here) | 92.6 | 89.5 | – | – | – | –
O=C1NC2(CCN(C(=O)c3ccc(Cl)s3)CC2)C(=O)NCCSSCCC(=O)N2CCCC2C(=O)NC1Cc1c[nH]c2ccccc12 (stereo not shown) [X B1 w D6] ([Mpa]PW[Api](2Thenoyl(5-Cl))-Cysteamide; disulfide 1-C; configuration not given here) | 94.1 | 97.2 | – | – | – | –
O=C1CCSSCCNC(=O)[C@H](CO)NC(=O)[C@H](CNC(=O)c2ccc(Cl)s2)NC(=O)CCN1 [X B2 D3 S] | 83.8 | 76.6 | 102.4 | 99.4 | – | –
O=C1CCSSCCNC(=O)[C@@H](Cc2c[nH]c3ccccc23)NC(=O)[C@@H](CNC(=O)c2ccc(Cl)s2)NC(=O)CCN1 [X B2 D4 w] | 88.8 | 91.0 | – | – | – | –
O=C1CCSSCCNC(=O)C(Cc2c[nH]c3ccccc23)NC(=O)C2CC(NC(=O)c3ccc(Cl)s3)CN2C(=O)CCN1 (stereo not shown) [X B2 D5 w] | 95.8 | 101.8 | – | – | – | –
O=C1CCSSCCNC(=O)[C@H](CNC(=O)c2ccc(Cl)s2)NC(=O)[C@H](Cc2ccccc2)NC(=O)CCN1 [X B2 F D3] | 34.0 | 33.5 | – | – | – | –
O=C1CCSSCCNC(=O)C2(CCN(C(=O)c3ccc(Cl)s3)CC2)NC(=O)[C@H](Cc2c[nH]cn2)NC(=O)CCN1 [X B2 H D6] | 96.8 | 101.7 | – | – | – | –
O=C1CCSSCCNC(=O)[C@@H](CNC(=O)c2ccc(Cl)s2)NC(=O)[C@H](Cc2c[nH]c3ccccc23)NC(=O)CCN1 [X B2 W D4] | 61.5 | 68.8 | – | – | – | –
C[C@H]1NC(=O)CCNC(=O)CCSSCCNC(=O)C2(CCN(C(=O)c3ccc(Cl)s3)CC2)NC1=O [X B2 a D6] | 96.5 | 92.7 | – | – | – | –
O=C1CCSSCCNC(=O)C(Cc2ccccc2)NC(=O)C(CNC(=O)c2ccc(Cl)s2)NC(=O)c2ccc(cc2)CN1 (stereo not shown) [X B3 D3 f] | 91.1 | 96.6 | – | – | – | –
O=C1CCSSCCNC(=O)C(CNC(=O)c2ccc(Cl)s2)NC(=O)C(Cc2ccccc2)NC(=O)c2ccc(cc2)CN1 (stereo not shown) [X B3 F D3] | 62.7 | 59.9 | – | – | – | –
CC(C)C[C@@H]1NC(=O)c2ccc(cc2)CNC(=O)CCSSCCNC(=O)C2(CCN(C(=O)c3ccc(Cl)s3)CC2)NC1=O [X B3 L D6] | 91.2 | 94.4 | – | – | – | –
CC(C)[C@@H]1NC(=O)c2ccc(cc2)CNC(=O)CCSSCCNC(=O)[C@H](CCCCNC(=O)c2ccc(Cl)s2)NC1=O [X B3 V D1] | 102.1 | 107.7 | – | – | – | –
O=C1CCSSCCNC(=O)[C@H](CCCCNC(=O)c2ccc(Cl)s2)NC(=O)[C@@H](Cc2ccc(O)cc2)NC(=O)c2ccc(cc2)CN1 [X B3 y D1] | 106.6 | 108.9 | – | – | – | –
O=C1CCSSCCNC(=O)[C@H](CNC(=O)c2ccc(Cl)s2)NC(=O)[C@@H](Cc2ccc(O)cc2)NC(=O)c2ccc(cc2)CN1 [X B3 y D3] | 88.0 | 89.2 | – | – | – | –
O=C(NCCCCC1NC(=O)C2CCCN(C2)C(=O)CCSSCCNC(=O)C(CO)NC1=O)c1ccc(Cl)s1 (stereo not shown) [X B4 D1 S] | 96.9 | 99.9 | – | – | – | –
CCC(C)C1NC(=O)C(CNC(=O)c2ccc(Cl)s2)NC(=O)C2CCCN(C2)C(=O)CCSSCCNC1=O (stereo not shown) [X B4 D3 I] | 64.0 | 61.8 | – | – | – | –

Compound | % thrombin activity, Original screen [%] | % thrombin activity, Repeat screen [%] | % thrombin activity, Original screen (listed as X B2 D3 s) [%] | % thrombin activity, Repeat screen (listed as X B2 D3 s) [%] | % thrombin activity, Original screen (listed as X B4 w D1) [%] | % thrombin activity, Repeat screen (listed as X B4 w D1) [%]
CC(C)[C@@H]1NC(=O)[C@H](CNC(=O)c2ccc(Cl)s2)NC(=O)[C@H]2CCCN(C2)C(=O)CCSSCCNC1=O [X B4 D3 V] | 62.4 | 58.2 | – | – | – | –
O=C1NC2(CCN(C(=O)c3ccc(Cl)s3)CC2)C(=O)N[C@@H](CO)C(=O)NCCSSCCC(=O)N2CCC[C@H]1C2 [X B4 D6 S] | 87.7 | 85.3 | – | – | – | –
CC(C)C[C@@H]1NC(=O)[C@H]2CCCN(C2)C(=O)CCSSCCNC(=O)[C@@H](CNC(=O)c2ccc(Cl)s2)NC1=O [X B4 L D4] | 97.0 | 93.7 | – | – | – | –
NC(=O)CC[C@@H]1NC(=O)[C@H]2CCCN(C2)C(=O)CCSSCCNC(=O)C2(CCN(C(=O)c3ccc(Cl)s3)CC2)NC1=O [X B4 Q D6] | 93.8 | 99.5 | – | – | – | –
O=C(NCCCC[C@@H]1NC(=O)[C@H](Cc2c[nH]c3ccccc23)NC(=O)[C@H]2CCCN(C2)C(=O)CCSSCCNC1=O)c1ccc(Cl)s1 [X B4 W D1] | 84.9 | 86.6 | – | – | 105.6 | 113.0
O=C(NC[C@H]1NC(=O)[C@@H](CO)NC(=O)[C@H]2CCCN(C2)C(=O)CCSSCCNC1=O)c1ccc(Cl)s1 [X B4 s D4] | 104.5 | 106.7 | – | – | – | –
CC[C@H](C)[C@@H]1NC(=O)[C@H](CCCNC(=O)c2ccc(Cl)s2)NC(=O)c2cccc(c2)CNC(=O)CCSSCCNC1=O [X B5 D2 I] | 86.0 | 83.0 | – | – | – | –
O=C1CCSSCCNC(=O)C(Cc2ccccc2)NC(=O)C2CC(NC(=O)c3ccc(Cl)s3)CN2C(=O)c2cccc(c2)CN1 (stereo not shown) [X B5 D5 f] | 91.3 | 95.8 | – | – | – | –
O=C1CCSSCCNC(=O)C(Cc2c[nH]c3ccccc23)NC(=O)C2CC(NC(=O)c3ccc(Cl)s3)CN2C(=O)c2cccc(c2)CN1 (stereo not shown) [X B5 D5 w] | 112.0 | 122.3 | – | – | – | –
NC(=O)CC[C@@H]1NC(=O)C2(CCN(C(=O)c3ccc(Cl)s3)CC2)NC(=O)c2cccc(c2)CNC(=O)CCSSCCNC1=O [X B5 D6 Q] | 54.9 | 55.7 | – | – | – | –
C[C@H]1NC(=O)C2(CCN(C(=O)c3ccc(Cl)s3)CC2)NC(=O)c2cccc(c2)CNC(=O)CCSSCCNC1=O [X B5 D6 a] | 86.2 | 89.2 | – | – | – | –
O=C1CCSSCCNC(=O)[C@H](CCCNC(=O)c2ccc(Cl)s2)NC(=O)[C@H](Cc2ccccc2)NC(=O)c2cccc(c2)CN1 [X B5 F D2] | 81.9 | 80.4 | – | – | – | –
NC(=O)CC[C@@H]1NC(=O)c2cccc(c2)CNC(=O)CCSSCCNC(=O)[C@H](CNC(=O)c2ccc(Cl)s2)NC1=O [X B5 Q D3] | 95.3 | 96.2 | – | – | – | –
O=C1CCSSCCNC(=O)C(CCCCNC(=O)c2ccc(Cl)s2)NC(=O)C(CO)NC(=O)c2cccc(c2)CN1 (stereo not shown) [X B5 S D1] | 96.4 | 100.5 | – | – | – | –
CC(C)CC1NC(=O)C(CCCNC(=O)c2ccc(Cl)s2)NC(=O)C2(CC2)CNC(=O)CCSSCCNC1=O (stereo not shown) [X B6 D2 L] | 107.3 | 102.8 | – | – | – | –
O=C1CCSSCCNC(=O)[C@H](Cc2c[nH]c3ccccc23)NC(=O)[C@H](CCCNC(=O)c2ccc(Cl)s2)NC(=O)C2(CC2)CN1 [X B6 D2 W] | 87.3 | 88.9 | – | – | – | –
O=C1CCSSCCNC(=O)[C@H](Cc2ccccc2)NC(=O)[C@H](CNC(=O)c2ccc(Cl)s2)NC(=O)C2(CC2)CN1 [X B6 D3 F] | 70.7 | 68.6 | – | – | – | –
O=C1CCSSCCNC(=O)C(Cc2c[nH]c3ccccc23)NC(=O)C(CNC(=O)c2ccc(Cl)s2)NC(=O)C2(CC2)CN1 (stereo not shown) [X B6 D3 w] | 92.5 | 95.8 | – | – | – | –
